ChEMBL document CHEMBL5321295, “Targeted Degradation of Alpha-Synuclein by Autophagosome-Anchoring Chimera Peptides” (J Med Chem, 2023)
Calls of active or inactive are those of the source. The rule behind the calls is not given here.

Tests used:
Alpha-synuclein [1] = biological target: T1, Alpha-synuclein (Homo sapiens, UniProt P37840); test: Induction of EGFP-fused alpha-synuclein (unknown origin) degradation overexpressed in HEK293T cells co-expressing mCherry-fused LC3B assessed as puncta formation of alpha-synuclein at 50 uM incubated for 2 hrs by confocal laser scanning microscopy; format: cell-based
SH-SY5Y [2] = test: Cytoprotective activity in human SH-SY5Y cells transfected with alpha-synuclein (unknown origin) assessed as increase in mitochondrial membrane potential level at 100 uM measured after 24 hrs by confocal laser scanning microscopy/flow cytometry (reference value: 45.02 +/- 5.04 %); format: functional
HEK-293T [3] = test: Cytotoxicity against wild-type HEK293T cells assessed as cell viability upto 200 uM incubated for 24 hrs by CCK8 assay; format: toxicity, cell-based; conditions: human
Alpha-synuclein [4] = biological target: T1, Alpha-synuclein; test: Induction of alpha-synuclein (unknown origin) degradation overexpressed in HEK293T cells infected with adenovirus expressing mCherry-EGFP-LC3B incubated for 24 hrs by immunoblot analysis; format: cell-based
HEK-293T [5] = test: Downregulation of THOP1 expression in HEK293T cells at 100 uM incubated for 24 hrs by proteomic profiling analysis; format: functional, cell-based; conditions: Homo sapiens
HEK-293T [6] = test: Downregulation of MARCKS expression in HEK293T cells at 100 uM incubated for 24 hrs by proteomic profiling analysis; format: functional, cell-based; conditions: Homo sapiens
HEK-293T [7] = test: Downregulation of BANF1 expression in HEK293T cells at 100 uM incubated for 24 hrs by proteomic profiling analysis; format: functional, cell-based; conditions: Homo sapiens
HEK-293T [8] = test: Downregulation of VAT1 expression in HEK293T cells at 100 uM incubated for 24 hrs by proteomic profiling analysis; format: functional, cell-based; conditions: Homo sapiens
HEK-293T [9] = test: Downregulation of PSMB7 expression in HEK293T cells at 100 uM incubated for 24 hrs by proteomic profiling analysis; format: functional, cell-based; conditions: Homo sapiens
HEK-293T [10] = test: Downregulation of MAT1A expression in HEK293T cells at 100 uM incubated for 24 hrs by proteomic profiling analysis; format: functional, cell-based; conditions: Homo sapiens
HEK-293T [11] = test: Downregulation of ELOB expression in HEK293T cells at 100 uM incubated for 24 hrs by proteomic profiling analysis; format: functional, cell-based; conditions: Homo sapiens
Alpha-synuclein [12] = biological target: T1, Alpha-synuclein; test: Induction of EGFP-fused alpha-synuclein (unknown origin) degradation overexpressed in HEK293T cells assessed as colocalization of alpha-synuclein with mCherry-fused LC3B at 50 uM incubated for 2 hrs by confocal laser scanning microscopy; format: cell-based
Alpha-synuclein [13] = biological target: T1, Alpha-synuclein; test: Binding affinity to alpha-synuclein (unknown origin) overexpressed in HEK293T cells at 50 to 100 uM incubated for 4 hrs by co-IP assay; format: cell-based; conditions: dose 50-100 µM
[14] = Drug localization in HEK293T cells overexpressing mCherry-fused alpha-synuclein (unknown origin) assessed as colocalization of lysosomes at 50 uM incubated for 2 hrs by MDC staining based confocal laser scanning microscopy; format: ADME, cell-based; conditions: human, hek-293t
[15] = Drug localization in HEK293T cells overexpressing mCherry-fused alpha-synuclein (unknown origin) assessed as colocalization of autophagosomes at 50 uM incubated for 2 hrs by LyTG staining based confocal laser scanning microscopy; format: ADME, cell-based; conditions: human, hek-293t
Alpha-synuclein [16] = biological target: T1, Alpha-synuclein; test: Induction of alpha-synuclein (unknown origin) degradation overexpressed in HEK293T cells at 50 uM incubated for 24 hrs in presence of Rapamycin by immunoblot analysis; format: cell-based
[17] = biological target: Microtubule-associated protein 1 light chain 3 beta (Homo sapiens, UniProt Q9GZQ8); test: Induction of LC3B-mediated autophagy flux in HEK293T cells overexpressing alpha-synuclein (unknown origin) assessed as increase in LAMP1 level upto 100 uM incubated for 4 hrs by immunoblot analysis; format: cell-based
SH-SY5Y [18] = test: Cytoprotective activity in human SH-SY5Y cells transfected with alpha-synuclein (unknown origin) assessed as decrease in ROS level at 100 uM measured after 24 hrs by confocal laser scanning microscopy/flow cytometry (reference value: 175.4 +/- 8.4 %); format: functional; design: scale not given: the % may be the effect or the level left
SH-SY5Y [19] = test: Cytoprotective activity in human SH-SY5Y cells transfected with alpha-synuclein (unknown origin) assessed as decrease in ROS level at 100 uM measured after 24 hrs by DCFH-DA staining based flow cytometry (reference value: 76 %); format: functional; design: scale not given: the % may be the effect or the level left
SH-SY5Y [20] = test: Cytoprotective activity in human SH-SY5Y cells transfected with alpha-synuclein (unknown origin) assessed as late apoptotic cells at 100 uM measured after 24 hrs by […] based flow cytometry (reference value: 56.6 %); format: functional
SH-SY5Y [21] = test: Cytoprotective activity in human SH-SY5Y cells transfected with alpha-synuclein (unknown origin) assessed as necrotic cells at 100 uM measured after 24 hrs by […] based flow cytometry (reference value: 14.8 %); format: functional
SH-SY5Y [22] = test: Cytoprotective activity in human SH-SY5Y cells transfected with alpha-synuclein (unknown origin) assessed as cell viability at 50 uM by CCK8 assay relative to control; format: functional; conditions: read-out: Activity
SH-SY5Y [23] = test: Cytoprotective activity against CCCP-induced cytotoxicity in human SH-SY5Y cells assessed as cell viability at 100 uM by CCK8 assay; format: functional, cell-based
Mus musculus [24] = test: Downregulation of alpha-synuclein level in substantia nigra pars compacta of MPTP-treated C57BL/6 mouse at 50 mg/kg/day, iv treated for 5 days by IHC analysis; format: functional, organism-based; conditions: time 5.0 day
Mus musculus [25] = test: Downregulation of alpha-synuclein level in substantia nigra pars compacta of MPTP-treated C57BL/6 mouse at 50 mg/kg/day, iv treated for 5 days by immunoblot analysis; format: functional, organism-based; conditions: time 5.0 day
Mus musculus [26] = test: Neuroprotective activity in MPTP-treated C57BL/6 mouse assessed as decrease in impaired neurons in substantia nigra pars compacta at 50 mg/kg/day, iv treated for 5 days by FJB staining based microscopy; format: functional, organism-based; conditions: time 5.0 day
Mus musculus [27] = test: Downregulation of aggregated alpha-synuclein level in substantia nigra pars compacta of MPTP-treated C57BL/6 mouse at 50 mg/kg/day, iv treated for 5 days by IHC analysis; format: functional, organism-based; conditions: time 5.0 day
Mus musculus [28] = test: Neuroprotective activity in MPTP-induced anxiety-like status in C57BL/6 mouse assessed as increase in time spent in zone centers of mouse track at 50 mg/kg/day, iv treated for 5 days measured after 4 days by open field test; format: functional, organism-based; conditions: time 9.0 day
Mus musculus [29] = test: Neuroprotective activity in MPTP-induced cognitive impairment in C57BL/6 mouse assessed as decrease in escape latency in navigation trial phase at 50 mg/kg/day, iv treated for 5 days measured after 5 to 8 days days by morris water maze test; format: functional, organism-based; conditions: time 10-13 day
[30] = Toxicity in C57BL/6 mouse assessed as body weight loss at 50 to 200 mg/kg/day treated for 5 days; format: organism-based; conditions: in vivo, 120 h, dose 50-200 mg/kg/day, time 5 day
[31] = Toxicity in C57BL/6 mouse assessed as dyspnea at 50 to 200 mg/kg/day treated for 5 days; format: organism-based; conditions: in vivo, 120 h, dose 50-200 mg/kg/day, time 5 day
[32] = Toxicity in C57BL/6 mouse assessed as reduction in ALT level at 200 mg/kg/day treated for 5 days; format: organism-based; conditions: in vivo, 120 h, time 5 day
[33] = Toxicity in C57BL/6 mouse assessed as change in urea level at 50 to 200 mg/kg/day treated for 5 days; format: organism-based; conditions: in vivo, 120 h, dose 50-200 mg/kg/day, time 5 day
[34] = Toxicity in C57BL/6 mouse assessed as change in uric acid level at 50 to 200 mg/kg/day treated for 5 days; format: organism-based; conditions: in vivo, 120 h, dose 50-200 mg/kg/day, time 5 day
[35] = Toxicity in C57BL/6 mouse assessed as change in LDHL level at 50 to 200 mg/kg/day treated for 5 days; format: organism-based; conditions: in vivo, 120 h, dose 50-200 mg/kg/day, time 5 day

CC(C)C[C@H](NC(=O)[C@H](Cc1c[nH]cn1)NC(=O)[C@@H](NC(=O)[C@H](Cc1c[nH]c2ccccc12)NC(=O)[C@H](CC(=O)O)NC(=O)[C@H](CC(=O)O)NC(=O)[C@H](CC(=O)O)NC(=O)CNC(=O)CNC(=O)[C@H](CO)NC(=O)[C@H](CO)NC(=O)CNC(=O)[C@H](CO)NC(=O)CNC(=O)[C@H](CCCNC(=N)N)NC(=O)[C@@H](NC(=O)[C@H](CCCCN)NC(=O)[C@H](CO)NC(=O)CNC(=O)[C@@H](NC(=O)[C@H](Cc1ccc(O)cc1)NC(=O)[C@H](CC(C)C)NC(=O)[C@@H](NC(=O)CN)C(C)C)C(C)C)[C@H](C)O)[C@@H](C)O)C(=O)N[C@@H](CO)C(=O)N[C@@H](CO)C(=O)N[C@@H](Cc1ccc(O)cc1)C(=O)NCC(=O)N[C@@H](CCCNC(=N)N)C(=O)N[C@@H](CCCCN)C(=O)N[C@@H](CCCCN)C(=O)N[C@@H](CCCNC(=N)N)C(=O)N[C@@H](CCCNC(=N)N)C(=O)N[C@@H](CCC(N)=O)C(=O)N[C@@H](CCCNC(=N)N)C(=O)N[C@@H](CCCNC(=N)N)C(=O)N[C@@H](CCCNC(=N)N)C(=O)O
Activity (Alpha-synuclein [1]): Active | Activity (SH-SY5Y [2]): 61.65% | Activity (HEK-293T [3]): Non-Toxic | DC50 (Alpha-synuclein [4]): 46.8 µM | Activity (Alpha-synuclein [4]; dose <= 200.0 µM): Dose-Dependent Effect | Activity (HEK-293T [5]): Active | Activity (HEK-293T [6]): Active | Activity (HEK-293T [7]): Active | Activity (HEK-293T [8]): Active | Activity (HEK-293T [9]): Active | Activity (HEK-293T [10]): Active | Activity (HEK-293T [11]): Active | Activity (Alpha-synuclein [12]): Active | Activity (Alpha-synuclein [13]): Active | Drug uptake [14]: Active | Drug uptake [15]: Active | Activity (Alpha-synuclein [16]): Active | Activity [17]: Active | Activity (SH-SY5Y [18]): 127.7% | Activity (SH-SY5Y [19]): 26.7% | Activity (SH-SY5Y [20]): 79.7% | Activity (SH-SY5Y [21]): 4.07% | viability at 50 µM (SH-SY5Y [22]): 91.8% | Activity (SH-SY5Y [23]): inactive | Activity (Mus musculus [24]): Active | Activity (Mus musculus [25]): Active | Activity (Mus musculus [26]): Active | Activity (Mus musculus [27]): Active | Activity (Mus musculus [28]): Active | Activity (Mus musculus [29]): Active | Activity [30]: Non-Toxic | Activity [31]: Non-Toxic | Activity [32]: Toxic | Activity [33]: Non-Toxic | Activity [34]: Non-Toxic | Activity [35]: Non-Toxic
